Assay results from patent US12606541B2, “PPARg modulators and methods of use” (Eisai R&D Management Co., Ltd., priority 2020, dated 2026).

Experiments:
His6-TEV-PPARγ-(234-505) = target: T1, His6-TEV-PPARγ-(234-505) (Homo sapiens, UniProt P37231); assay: TR-FRET Assay to Measure Co-R Peptide Recruitment to PPARγ; format: biochemical; conditions: Co-R peptide (SMRT-ID2) recruitment; top final concentration 20 μM; read-out: TR-FRET i-Ag; AC50
T1 construct: The His6-TEV-PPARγ-(234-505) protein for assay was expressed and purified; TEV cleavage site (N); made in house
T1 sequence (P37231 234-505): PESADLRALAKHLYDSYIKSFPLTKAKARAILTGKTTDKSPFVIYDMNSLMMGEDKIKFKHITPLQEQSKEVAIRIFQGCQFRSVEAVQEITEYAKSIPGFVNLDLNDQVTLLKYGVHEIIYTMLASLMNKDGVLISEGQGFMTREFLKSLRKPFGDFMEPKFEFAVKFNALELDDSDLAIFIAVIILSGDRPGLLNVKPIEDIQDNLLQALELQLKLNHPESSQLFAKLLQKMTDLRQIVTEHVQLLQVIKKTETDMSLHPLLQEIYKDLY
Procedure, shortened: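 Corepressor recruitment is measured by adding terbium-labeled anti-His antibody and FITC SMRT-ID2 peptide, at 5 and 200 nM final, after a 20-minute room-temperature protein–compound incubation. After one further hour, signal is converted to percent response between DMSO and 500 nM T0070907 wells.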

UM-UC-9 engineered cells = assay: Cell proliferation / short-term viability assay, CellTiter-Glo 144 h; format: cell-based, human; conditions: Homo sapiens, UM-UC-9, 144 h, read-out: CTGlo 144 h UMUC9.5, G150
Procedure, shortened: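 Viability read by CellTiter-Glo 2.0 luminescence at day 7 versus DMSO-vehicle wells and a T0 plate measured on day 0. Cells: UM-UC-9 engineered assay-ready stocks, 500 cells/well in high-glucose DMEM with 10% FBS, 37° C, 5% CO2.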

SMILES | AC50 (His6-TEV-PPARγ-(234-505)) [nM] | IC50 (UM-UC-9 engineered cells) [nM]
COc1cc(-c2cc(C(=O)N3CCC(C(=O)NC4CCN(C)c5ccccc54)CC3)n[nH]2)c(Cl)cn1 (racemic) [Example 186, 1-(5-(5-chloro-2-methoxypyridin-4-yl)-1H-pyrazole-3-carbonyl)-N-(1-methyl-1,2,3,4-tetrahydroquinolin-4-yl)piperidine-4-carboxamide] | 202 | 339
COc1cc(-c2cc(C(=O)N3CCC(C(=O)NC4CCCc5cnccc54)CC3)n[nH]2)c(Cl)cn1 (racemic) [Example 191, 1-(5-(5-chloro-2-methoxypyridin-4-yl)-1H-pyrazole-3-carbonyl)-N-(5,6,7,8-tetrahydroisoquinolin-5-yl)piperidine-4-carboxamide] | 838 | 2010
COc1cc(-c2cc(C(=O)N3CCC(C(=O)NC4CCOc5ccc(F)cc54)CC3)n[nH]2)c(Cl)cn1 (racemic) [Example 195, 1-(5-(5-chloro-2-methoxypyridin-4-yl)-1H-pyrazole-3-carbonyl)-N-(6-fluorochroman-4-yl)piperidine-4-carboxamide] | 212 | 348
COc1cc(-c2cc(C(=O)N3CCC(C(=O)NC4CCN(c5ccccc5)C4=O)CC3)n[nH]2)c(Cl)cn1 (racemic) [Example 207, 1-(5-(5-chloro-2-methoxypyridin-4-yl)-1H-pyrazole-3-carbonyl)-N-(2-oxo-1-phenylpyrrolidin-3-yl)piperidine-4-carboxamide] | 889 | 5670
COc1cc(-c2cc(C(=O)N3CCC(C(=O)NC4COC(C)(C)C4)CC3)n[nH]2)c(Cl)cn1 (racemic) [Example 213, 1-(5-(5-chloro-2-methoxypyridin-4-yl)-1H-pyrazole-3-carbonyl)-N (5,5-dimethyltetrahydrofuran-3-yl)piperidine-4-carboxamide] | 571 | 1640
COc1cc(-c2cc(C(=O)N3CCC(C(=O)NCC4CC(F)(F)CO4)CC3)n[nH]2)c(Cl)cn1 (racemic) [Example 220, 1-(5-(5-chloro-2-methoxypyridin-4-yl)-1H-pyrazole-3-carbonyl)-N-((4,4-difluorotetrahydrofuran-2-yl)methyl)piperidine-4-carboxamide] | 286 | 2130
COc1cc(-c2cc(C(=O)N3CCC(C(=O)NC4CCN(c5ccccc5F)C4)CC3)n[nH]2)c(Cl)cn1 (racemic) [Example 222, 1-(5-(5-chloro-2-methoxypyridin-4-yl)-1H-pyrazole-3-carbonyl)-N-(1-(2-fluorophenyl)pyrrolidin-3-yl)piperidine-4-carboxamide] | 18.5 | 208
COc1cc(-c2cc(C(=O)N3CCC(C(=O)NC4CCCc5nc(C)ncc54)CC3)n[nH]2)c(Cl)cn1 (racemic) [Example 224, 1-(5-(5-chloro-2-methoxypyridin-4-yl)-1H-pyrazole-3-carbonyl)-N-(2-methyl-5,6,7,8-tetrahydroquinazolin-5-yl)piperidine-4-carboxamide] | 554 | 5180
COc1cc(-c2cc(C(=O)N3CCC(C(=O)NC4CN(C)Cc5ccccc54)CC3)n[nH]2)c(Cl)cn1 (racemic) [Example 227, 1-(5-(5-chloro-2-methoxypyridin-4-yl)-1H-pyrazole-3-carbonyl)-N-(2-methyl-1,2,3,4-tetrahydroisoquinolin-4-yl)piperidine-4-carboxamide] | 947 | 5960
COc1cc(-c2cc(C(=O)N3CCC(C(=O)NC4CS(=O)(=O)N(C)c5ccccc54)CC3)n[nH]2)c(Cl)cn1 (racemic) [Example 231, 1-(5-(5-chloro-2-methoxypyridin-4-yl)-1H-pyrazole-3-carbonyl)-N-(1-methyl-2,2-dioxido-3,4-dihydro-1H-benzo[c][1,2]thiazin-4-yl)piperidine-4-carboxamide] | 999 | 5440
COc1cc(-c2cc(C(=O)N3CCC(C(=O)NC4CCCc5c4ccc(=O)n5C)CC3)n[nH]2)c(Cl)cn1 (racemic) [Example 234, 1-(5-(5-chloro-2-methoxypyridin-4-yl)-1H-pyrazole-3-carbonyl)-N-(1-methyl-2-oxo-1,2,5,6,7,8-hexahydroquinolin-5-yl)piperidine-4-carboxamide] | 927 | > 10000
COc1cc(-c2cc(C(=O)N3CCC(C(=O)NC4CCOc5ncccc54)CC3)n[nH]2)c(Cl)cn1 (racemic) [Example 236, 1-(5-(5-chloro-2-methoxypyridin-4-yl)-1H-pyrazole-3-carbonyl)-N (3,4-dihydro-2H-pyrano[2,3-b]pyridin-4-yl)piperidine-4-carboxamide] | 466 | 5360
COc1cc(-c2cc(C(=O)N3CCC(C(=O)NC4C(=O)N(C)Cc5ccccc54)CC3)n[nH]2)c(Cl)cn1 (racemic) [Example 240, 1-(5-(5-chloro-2-methoxypyridin-4-yl)-1H-pyrazole-3-carbonyl)-N-(2-methyl-3-oxo-1,2,3,4-tetrahydroisoquinolin-4-yl)piperidine-4-carboxamide] | 708 | 6050
COc1cc(-c2cc(C(=O)N3CCC(C(=O)NC4C(=O)NCc5ccccc54)CC3)n[nH]2)c(Cl)cn1 (racemic) [Example 244, 1-(5-(5-chloro-2-methoxypyridin-4-yl)-1H-pyrazole-3-carbonyl)-N-(3-oxo-1,2,3,4-tetrahydroisoquinolin-4-yl)piperidine-4-carboxamide] | 605 | 5560
COc1cc(-c2cc(C(=O)N3CCC(C(=O)NC4CCN(c5ccc(F)cc5)C4)CC3)n[nH]2)c(Cl)cn1 (racemic) [Example 253, 1-(5-(5-chloro-2-methoxypyridin-4-yl)-1H-pyrazole-3-carbonyl)-N-(1-(4-fluorophenyl)pyrrolidin-3-yl)piperidine-4-carboxamide] | 51 | 387
COc1cc(-c2cc(C(=O)N3CCC(C(=O)NCc4cccc(Cl)c4)CC3(C)C)n[nH]2)c(Cl)cn1 (racemic) [Example 255] | 63.3 | 151
COc1cc(-c2cc(C(=O)N3CCC(C(=O)NC(C)c4ccc5[nH]nc(C)c5c4)CC3)n[nH]2)c(F)cn1 (racemic) [Example 281, 1-(5-(5-fluoro-2-methoxypyridin-4-yl)-1H-pyrazole-3-carbonyl)-N-(1-(3-methyl-1H-indazol-5-yl)ethyl)piperidine-4-carboxamide] | 101 | 632
COc1cc(-c2cc(C(=O)N3[C@@H]4CC[C@H]3C[C@H](C(=O)NC3CCC(O)(C(F)(F)C(F)(F)F)CC3)C4)n[nH]2)c(F)cn1 (mixture of isomers) [Example 301, (1R,3s,5S)-8-(5-(5-fluoro-2-methoxypyridin-, 1-yl)-1H-pyrazole-3-carbonyl)-N-(4-hydroxy-4-(perfluoroethyl)cyclohexyl)-8-azabicyclo[3.2.1]octane-3-carboxamide] | 15.9 | 74.8
